≈ marks a conversion by molar mass, not a printed value. Where two headings read alike, the source gives them in different places.
Legend:
WNV [1] = assay: Inhibition of CPE assay at time points after initiation (Table 2); format: cell-based, West Nile virus; conditions: for EC50: West Nile virus, 144 h, read-out: Inhibition of CPE assay EC50
[2] = test system: West Nile Virus ATCC VR-82 (strain B956); assay: CPE inhibition assay against West Nile virus ATCC VR-82 (visual and neutral red reading); format: cell-based; conditions: Vero
[3] = test system: West Nile virus New York Isolate; assay: CPE inhibition assay against West Nile virus New York isolate in Vero cells; format: cell-based
WNV [4] = assay: Virus yield reduction (VYR) assay, West Nile virus; format: cell-based; conditions: for EC90: West Nile virus, read-out: Virus yield reduction assay EC90
[5] = Cytotoxicity in toxicity control wells of the WNV tests; format: cell-based; conditions: African green monkey, Vero 76 cells (kidney), uninfected toxicity control wells
in vitro [6] = conditions: African green monkey
[7] = test system: Banzi virus (BV), H 336 strain; assay: microbe, parasite or virus in culture; format: cell-based; conditions: Vero
WNV [8] = conditions: Morrey et al., 2002; cited from earlier work
in vitro [9] = conditions: African green monkey; remark: listed apart in the source
[10] = test system: Bovine viral diarrhea virus (BVDV), TN131 strain; assay: microbe, parasite or virus in culture; format: cell-based; conditions: Bovine viral diarrhea virus isolates and strains
[11] = test system: Yellow fever virus (YFV), 17D strain; assay: microbe, parasite or virus in culture; format: cell-based; conditions: Vero
in vitro [12] = conditions: bovine
GAPDH mRNA = assay: Cytotoxicity by GAPDH mRNA in HCV replicon-containing cells; conditions: FIG. 1B
[13] = 144 h, New York Isolate, Visual, Vero cells, 6 days post-virus exposure
[14] = New York Isolate, NR (Neutral red), Vero cells
[15] = ATCC VR-82 columns, NR (Neutral red)
[16] = New York Isolate columns, NR (Neutral red)
[17] = New York Isolate columns, Visual

| SMILES | EC50 (WNV [1]) | EC50 [2] | EC50 ([2]; 144 h) | EC50 [3, 13] | EC50 [3, 14] | EC90 (WNV [4]; 48 h) | EC90 (WNV [4]; 144 h) | CC50 at 6 days [5, 15] | CC50 at 6 days ([5]; ATCC VR-82 columns, Visual) | CC50 at 6 days [5, 16] | CC50 at 6 days [5, 17] | CC50 (in vitro [6]) | EC50 [7] | CC50 (in vitro [9]) | EC50 [10] | EC50 [11] | CC50 (in vitro [12]) | other results |
| --- | --- | --- | --- | --- | --- | --- | --- | --- | --- | --- | --- | --- | --- | --- | --- | --- | --- | --- |
| O=c1cnn([C@@H]2O[C@H](CO)[C@@H](O)[C@H]2O)c(=O)[nH]1 [6-aza-U, 6-azauridine, reference compound] | 3.1 µg/mL (≈ 12.6 µM) | 5 µg/mL (≈ 20.4 µM) | 22 µg/mL (≈ 89.7 µM) | 0.9 µg/mL (≈ 3.67 µM) | 1.6 µg/mL (≈ 6.53 µM) | 1.6 µg/mL (≈ 6.53 µM) | 431 µg/mL (≈ 1760 µM) | > 100 µg/mL | 85 µg/mL (≈ 347 µM) | > 100 µg/mL | 85 µg/mL (≈ 347 µM) | – | – | – | – | – | – | CPE observed (WNV [1]; 8 days post-virus initiation, cells treated with any concentration): 100%; Effect of addition of fresh compound every 2 days on VYR (WNV [4]; day 6, compared to no addition of fresh compound): did not improve |
| NC(=O)c1ncn([C@@H]2O[C@H](CO)[C@@H](O)[C@H]2O)n1 [Ribavirin, reference compound] | – | – | – | – | – | – | – | – | – | – | – | > 100 µg/mL | 60 µg/mL (≈ 246 µM) | > 100 µg/mL | 5 µg/mL (≈ 20.5 µM) | 32 µg/mL (≈ 131 µM) | > 100 µg/mL | activity against WNV in tissue culture (WNV [8]): poor activity |
| Nc1nc(=O)n2ccn([C@@H]3O[C@H](CO)[C@@H](O)[C@H]3O)c2n1 [ZX-2401, 2-amino-8-(β-D-ribofuranosyl) imidazo [1,2-a]-s-triazine-4-one] | 15 µg/mL (≈ 53 µM) | 3 µg/mL (≈ 10.6 µM) | < 4.6 µg/mL | 9.5 µg/mL (≈ 33.5 µM) | 8 µg/mL (≈ 28.2 µM) | 3.3 µg/mL (≈ 11.7 µM) | 40 µg/mL (≈ 141 µM) | > 100 µg/mL | > 100 µg/mL | > 100 µg/mL | > 100 µg/mL | > 100 µg/mL | 5 µg/mL (≈ 17.7 µM) | > 100 µg/mL | 0.6 µg/mL (≈ 2.12 µM) | 10 µg/mL (≈ 35.3 µM) | > 100 µg/mL | Toxicity by visual inspection of treated uninfected cultures (Vero cells): No toxicity; EC50 ([3]; MOI 1.6 × 10^−3, New York strain in Vero cells): 20 µg/mL (≈ 70.6 µM); EC50 ([3]; MOI 1.6 × 10^−4, New York strain in Vero cells): 12 µg/mL (≈ 42.4 µM); EC50 ([3]; MOI 5 × 10^−4, New York strain in Vero cells): 15 µg/mL (≈ 53 µM); EC50 ([3]; MOI 5 × 10^−5 (5 CCID50), New York strain in Vero cells): 15 µg/mL (≈ 53 µM); toxicity as measured by GAPDH mRNA levels (GAPDH mRNA): no toxicity |

From patent publication US20060035848A1, “Broad-spectrum inhibitor of viruses in the Flaviviridae family” (ZymeTx, Inc., priority 2004, published 2006)
